Data from the NIST ThermoML archive (doi:10.1021/je050434f).

Columns and labels:
[1] = for speed of sound / mass density / viscosity: 101.33 kPa, Liquid; for speed of sound: Sing-around technique in a fixed-path interferometer; for mass density: Vibrating tube method; for surface tension liquid-gas: Pendant drop shape; for viscosity: Capillary tube (Ostwald / Ubbelohde) method
[2] = refractive index (Na D-line) (dimensionless); conditions: 101.33 kPa, Liquid, Abbe refractometer

COS(=O)(=O)[O-].Cn1cc[n+](C)c1 [1,3-dimethylimidazolium methylsulfate]
Conditions | mass density, [1] [kg/m3] | refractive index, [2] | speed of sound, [1] [m/s] | surface tension liquid-gas, [1] [mN/m] | viscosity, [1] [mPa·s]
283.15 K | 1338.24 | 1.48659 | 1851 | – | –
288.15 K | 1334.54 | 1.48525 | 1838 | 60.9 | –
293.15 K | 1330.88 | 1.48392 | 1826 | 60.3 | 92.76
298.15 K | 1327.25 | 1.4827 | 1813 | 59.8 | 72.91
303.15 K | 1323.65 | 1.48129 | 1801 | 59.5 | 58.35
308.15 K | 1320.09 | 1.47999 | 1789 | 59.1 | –
313.15 K | 1316.57 | 1.47867 | 1777 | 58.9 | 39.21
318.15 K | 1313.05 | 1.47726 | 1765 | – | –
323.15 K | 1309.55 | 1.47593 | 1753 | – | 27.78
328.15 K | 1306.06 | 1.47421 | 1742 | – | –
333.15 K | 1302.59 | 1.47294 | 1730 | – | 21.01
338.15 K | 1299.14 | 1.47154 | 1719 | – | –
343.15 K | 1295.7 | 1.47027 | 1708 | – | 16.01
